Measured values from patent US10472341B2, “Bicyclic tetrahydrothiazepine derivatives useful for the treatment of neoplastic and/or infectious diseases” (APEIRON BIOLOGICS AG, priority 2015, dated 2019).
Structures can show the parent of a compound that is named as a salt.

What was measured:
CD8 T cells = experiment: CD8 T cell viability (number of living cells) with or without M21 cells; format: cell-based, human
Procedure: (§1) Isolated PBMCs, NK cells or CD8 positive cells were plated in Xvivo medium at 1.5*10^5 cells per in 96 well culture plates in the presence of 0.3*10^4 tumor cells where indicated. Cytokine secretion was determined by ELISA, immune cell activation (using Beckman-Coulter Abs CD25-PC5, CD69-PC7), cell viability and numbers by flow cytometry (Beckman-Coulter FC500 or Gallios) using 7-AAD exclusion as criterion for living cells. CD8-positive immune cells were isolated from PBMCs and were incubated with and without compound example 67, either alone or in co-culture with M21 melanoma cells.

NK cells = experiment: NK cell stimulation by IL-2: IFN-gamma and TNF-alpha release; format: cell-based, human; details: for IFN-gamma / TNF-alpha: IL-2 stimulation
Procedure: Isolated NK cells were plated in Xvivo medium at 1.5*10^5 cells per in 96 well culture plates and stimulated with 50 ng/ml IL-2 (Aldesleukin) where indicated. Cytokine secretion was determined by ELISA, immune cell activation by flow cytometry (Beckman-Coulter Abs CD25-PC5, CD69-PC7 and acquisition on Beckman-Coulter Gallios) using 7-AAD exclusion as criterion for living cells. IL-2 is a key factor for survival, proliferation and activation of NK cells, thus linking adaptive immunity mediated by T cells with the innate immunity mediated by NK cells. Especially CD8 T cells release IL-2 locally at the site of antigen-encounter in the tumor, and thus support and activate NK cell anti-tumor functions. Compound example 67 has been chosen as an example. […] Thus, compounds have a unique potential to support the interlinked anti-tumor immunity of T and NK cells in the physiological context in vivo.

M21 melanoma cells = experiment: M21 viability (number of living cells) with or without CD8 cells; format: cell-based, human
Procedure: as §1

OT-I T cells = experiment: OT-I transfer to mice with B16-F10-OVA tumors: tumor antigen-specific T cell proliferation; format: in vivo, mouse; details: B16-F10-OVA tumor bearing mice; for OT-I T cell proliferation: 10 mg/kg orally; for Proliferation [% proliferated OT-I T cells]: 10 mg/kg dosed orally
Procedure: • Single cell suspension of splenocytes was prepared from the spleen by rinsing cells through a sterile 70 μm filter with PBS • Cells were collected by centrifugation in an 15 ml tube, the cell pellet was resuspended in 1 ml of Erylyse buffer and incubated at room temperature for 5 minutes, tubes were filled up with PBS and cells were washed twice • Cells were counted and resuspended in the desired buffer volume for MACS-enrichment or flow cytometric analysis Isolation of CD4 T Cells from OT-II Transgenic Mice • Splenocytes were resuspended in MACS buffer ([…] MACS-buffer/10^7 cells) • CD4 T cells were isolated using the CD4 T cell isolation kit (Miltenyi) with LS-columns following manufacturer's recommendations CFSE-Labeling of T Cells • Cells were resuspended in PBS with 0.1% BSA at 1×10^7 cells/ml and CFSE-solution was added to final concentration of 2.5 μM CFSE • Incubated for 10 min at 37° C., swung each 2 min • Same volume of FCS added and incubated for 5 min at room temperature • Cells were washed twice with RMPI-10% FCS medium • Cells were counted and resuspended in PBS or medium at desired concentration OT-II Transfer • Day 0: OT-II cells were transferred in PBS (3*10^6. Cells in 100 μl PBS) by retro-orbital injection • Day 1: WT mice got OVA vaccinated (subcut. flank, 10 μg LPS, 2 μg OVA per animal) • 2 & 4 h later compounds were administrated; for oral dosing compound was used as suspension (0.5% methylcellulose in water), for i.v. dosing compound was solubilized in DMSO and diluted with PBS • Day 2: compounds were administrated twice in the morning (with 2 h time interval) • Day 3: Mice were sacrificed & splenocytes were isolated • T cell proliferation & phenotype was determined by flow cytometry • Flow cytometry-Staining (all Abs purchased from eBioscience and used as recommended by the manufacturer): B220-eF450, CD4-PE, CD25PerCPCy5.5, CD69-PC7, TCRVa2-APC, CD8-AF700, CD3-eF780; CFSE; 7-AAD • Acquisition on Beckman-Coulter Gallios, Analysis using Kaluza Software OT-I Transfer to Mice with B16-F10-OVA Tumors • Day 0: 100000 B16-F10-OVA tumor cells were inoculated subcutaneously at the flank of WT-mice • Day 7: OT-I cells were transferred in PBS (3*10^6. […]

CCCCNC(=O)c1ccc2c(c1)N(Cc1ccc(OC(F)(F)F)cc1)C(=O)[C@@H](N)CS2(=O)=O.Cl [Example 67, (3R)-3-amino-N-butyl-1,1,4-trioxo-5-{[4-(trifluoromethoxy)phenyl]methyl}-2,3,4,5-tetrahydro-1λ^6,5-benzothiazepine-7-carboxamide hydrochloride]
CD8 T cell viability [Number of Living Cells] average (CD8 T cells; 0.03 μM, CD8 cells & M21): 22933.00 Number of Living Cells
CD8 T cell viability [Number of Living Cells] average (CD8 T cells; 0.03 μM, CD8 only): 23523.00 Number of Living Cells
CD8 T cell viability [Number of Living Cells] average (CD8 T cells; 0.1 μM, CD8 cells & M21): 23942.33 Number of Living Cells
CD8 T cell viability [Number of Living Cells] average (CD8 T cells; 0.1 μM, CD8 only): 24094.33 Number of Living Cells
CD8 T cell viability [Number of Living Cells] average (CD8 T cells; 0.3 μM, CD8 cells & M21): 23944.67 Number of Living Cells
CD8 T cell viability [Number of Living Cells] average (CD8 T cells; 0.3 μM, CD8 only): 23739.00 Number of Living Cells
CD8 T cell viability [Number of Living Cells] average (CD8 T cells; 1 μM, CD8 cells & M21): 24569.67 Number of Living Cells
CD8 T cell viability [Number of Living Cells] average (CD8 T cells; 1 μM, CD8 only): 23066.67 Number of Living Cells
CD8 T cell viability [Number of Living Cells] average (CD8 T cells; 3 μM, CD8 cells & M21): 24633.67 Number of Living Cells
CD8 T cell viability [Number of Living Cells] average (CD8 T cells; 3 μM, CD8 only): 23975.33 Number of Living Cells
CD8 T cell viability [Number of Living Cells] average (CD8 T cells; 10 μM, CD8 cells & M21): 24006.33 Number of Living Cells
CD8 T cell viability [Number of Living Cells] average (CD8 T cells; 10 μM, CD8 only): 25522.67 Number of Living Cells
number of CD8 T cells; number of tumor cells in the absence of CD8 T cells (CD8 T cells; CD8 / M21 cultures): neither the number of CD8 T cells nor the number of tumor cells in the absence of CD8 T cells was substantially modulated
IFN-gamma (NK cells; 0.03 μM): 0.71 ng/mL
TNF-alpha (NK cells; 0.03 μM): 0.04 ng/mL
IFN-gamma (NK cells; 0.1 μM): 0.72 ng/mL
TNF-alpha (NK cells; 0.1 μM): 0.03 ng/mL
IFN-gamma (NK cells; 0.3 μM): 1.00 ng/mL
TNF-alpha (NK cells; 0.3 μM): 0.06 ng/mL
IFN-gamma (NK cells; 1 μM): 1.23 ng/mL
TNF-alpha (NK cells; 1 μM): 0.09 ng/mL
IFN-gamma (NK cells; 3 μM): 1.50 ng/mL
TNF-alpha (NK cells; 3 μM): 0.10 ng/mL
IFN-gamma (NK cells; 10 μM): 1.40 ng/mL
TNF-alpha (NK cells; 10 μM): 0.12 ng/mL
IFN-gamma (NK cells; 30 μM): 1.22 ng/mL
TNF-alpha (NK cells; 30 μM): 0.14 ng/mL
responsiveness of NK cells upon IL-2 activation (release of IFN-gamma and TNF-alpha) (NK cells; NK cells, IL-2): can directly enhance the responsiveness of NK cells upon IL-2 activation
M21 Viability [Number of Living Cells] average (M21 melanoma cells; 0.03 μM, CD8 cells & M21): 13077.00 Number of Living Cells
M21 Viability [Number of Living Cells] average (M21 melanoma cells; 0.1 μM, CD8 cells & M21): 11586.67 Number of Living Cells
M21 Viability [Number of Living Cells] average (M21 melanoma cells; 0.3 μM, CD8 cells & M21): 9525.67 Number of Living Cells
M21 Viability [Number of Living Cells] average (M21 melanoma cells; 1 μM, CD8 cells & M21): 3916.67 Number of Living Cells
M21 Viability [Number of Living Cells] average (M21 melanoma cells; 3 μM, CD8 cells & M21): 3604.00 Number of Living Cells
M21 Viability [Number of Living Cells] average (M21 melanoma cells; 10 μM, CD8 cells & M21): 3448.67 Number of Living Cells
M21 Viability [Number of Living Cells] average (M21 melanoma cells; 10 μM, M21 only (no CD8 cells)): 18139 Number of Living Cells
viable tumor cells (M21 melanoma cells; immune cell cocultures with M21 tumor cells): strong reduction in viable tumor cells

N[C@H]1CS(=O)(=O)c2cc(F)c(C(=O)NC3CC3(F)F)cc2N(Cc2ccc(Cl)cc2)C1=O (stereo partly drawn) [Example 1, (3R)-3-amino-5-[(4-chlorophenyl)methyl]-N-(2,2-difluorocyclopropyl)-8-fluoro-1,1,4-trioxo-2,3,4,5-tetrahydro-1λ^6,5-benzothiazepine-7-carboxamide hydrochloride]
OT-I T cell proliferation (OT-I T cells; spleen): significantly (p=0.006) increased
OT-I T cell proliferation (OT-I T cells; tumor-draining lymphnodes): highly significantly (p=0.0002) enhanced
Proliferation [% proliferated OT-I T cells] (OT-I T cells; Lymph node): 12.28%
Proliferation [% proliferated OT-I T cells] (OT-I T cells; Spleen): 8.62%
